# Measurements taken from the supplement of paper PMC10307832.
# What was measured:
# Experiment in all cases: relative viability (nuclei count vs DMSO), 5 days (fraction); higher = more cells survive
# [1] = compound: C#Cc1cccc(Nc2ncnc3cc(OC)c(OCCCCCCC(=O)NO)cc23)c1 [CUDC-101] + Nc1nc2[nH]cc(CCc3ccc(C(=O)N[C@@H](CCC(=O)O)C(=O)O)cc3)c2c(=O)[nH]1 [Pemetrexed] (partner 0.2 µM)
# In short: (§1)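 One day after seeding in 1536-well plates, lung cancer cell lines were dosed by pin tool. Dosing was either single-drug or a fixed anchor-drug dose plus five library-drug doses (not always all listed) in √10 steps. After 5 days, nuclei were stained in one fix-and-stain step and counted on 4× images, and relative viability is the nuclei count of treated wells over that of vehicle wells, given as the median of duplicate plates.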
# [2] = compound: COc1cc2/c(=N/c3ccc(Br)cc3F)nc[nH]c2cc1OCC1CCN(C)CC1 [Vandetanib] + Nc1nc2[nH]cc(CCc3ccc(C(=O)N[C@@H](CCC(=O)O)C(=O)O)cc3)c2c(=O)[nH]1 [Pemetrexed] (partner 0.2 µM)
# In short: as §1
# [3] = compound: C1=CC=C2C(=C1)N=C(S2)C(C#N)C3=NC(=NC=C3)NCCC4=CN=CC=C4 + Cc1cc(Nc2cc(N3CCN(C)CC3)nc(Sc3ccc(NC(=O)C4CC4)cc3)n2)n[nH]1 [Tozasertib] (partner 0.1 µM)
# In short: as §1
# [4] = compound: COc1cc2/c(=N/c3ccc(Br)cc3F)nc[nH]c2cc1OCC1CCN(C)CC1 [Vandetanib] + CC(=O)c1c(C)c2cnc(Nc3ccc(N4CCNCC4)cn3)nc2n(C2CCCC2)c1=O [Palbociclib] (partner 0.5 µM)
# In short: as §1
Cell Line,relative viability ([1]; first compound 0.01 µM),relative viability ([1]; first compound 0.03162 µM),relative viability ([1]; first compound 0.1 µM),relative viability ([1]; first compound 0.3162 µM),relative viability ([1]; first compound 1 µM),relative viability ([2]; first compound 0.02 µM),relative viability ([2]; first compound 0.06325 µM),relative viability ([2]; first compound 0.2 µM),relative viability ([2]; first compound 0.6325 µM),relative viability ([2]; first compound 2 µM),relative viability ([3]; first compound 0.01581 µM),relative viability ([3]; first compound 0.05 µM),relative viability ([3]; first compound 0.1581 µM),relative viability ([3]; first compound 0.5 µM),relative viability ([4]; first compound 0.02 µM),relative viability ([4]; first compound 0.06325 µM),relative viability ([4]; first compound 0.2 µM),relative viability ([4]; first compound 0.6325 µM),relative viability ([4]; first compound 2 µM),relative viability ([3]; first compound 0.005 µM)
NCI-H441,0.248,0.261,0.263,0.274,0.228,0.252,0.269,0.27,0.263,0.263,0.715,0.633,0.759,0.531,0.221,0.253,0.21,0.197,0.171,–
NCI-H460,0.0606,0.0635,0.0676,0.0669,0.0703,0.0623,0.0604,0.0622,0.0619,0.0589,0.282,0.302,0.204,0.0413,0.147,0.157,0.189,0.148,0.166,0.396
NCI-H520,0.711,0.755,0.774,0.608,0.342,0.705,0.646,0.607,0.783,0.679,0.431,0.467,0.376,0.421,0.254,0.196,0.293,0.273,0.256,0.406
NCI-H522,0.87,0.802,1.05,0.963,0.765,0.941,1.02,0.957,1.25,0.999,0.553,0.501,0.573,0.537,0.89,0.909,1.14,0.961,0.986,0.458
NCI-H647,0.177,0.167,0.199,0.194,0.165,0.185,0.152,0.182,0.153,0.175,0.342,0.289,0.292,0.151,0.402,0.385,0.384,0.358,0.381,0.315
NCI-H650,1.02,0.916,1,0.904,0.803,0.844,0.801,0.869,0.964,0.873,–,0.708,0.742,0.644,0.358,0.317,0.366,0.323,0.291,0.633
NCI-H661,0.956,0.903,0.953,0.968,0.631,0.882,0.938,0.98,0.907,0.907,0.332,0.342,0.355,0.392,0.4,0.411,0.433,0.458,0.392,0.365
NCI-H838,0.332,0.248,0.257,0.26,0.198,0.242,0.243,0.251,0.232,0.237,0.289,0.243,0.282,0.223,0.219,0.227,0.243,0.216,0.219,0.28
NCI-H1355,0.995,1.07,0.974,1.13,1.02,1.03,0.994,1.05,0.985,1.06,0.516,0.463,0.594,0.385,0.437,0.399,0.408,0.387,0.373,0.445
NCI-H1395,0.856,0.91,0.943,0.877,0.676,0.917,0.902,0.746,0.842,0.612,0.69,0.755,0.713,0.756,0.635,0.602,0.641,0.609,0.567,0.684
NCI-H1437,0.336,0.306,0.337,0.31,0.316,0.308,0.306,0.307,0.319,0.304,0.389,0.414,0.401,0.325,0.295,0.32,0.346,0.302,0.341,0.355
NCI-H1648,0.826,0.744,0.805,0.741,0.535,0.568,0.691,0.652,0.995,0.714,0.416,0.553,0.424,0.484,0.27,0.245,0.2,0.284,0.24,0.394
NCI-H1650,0.381,0.297,0.389,0.397,0.351,0.374,0.315,0.404,0.371,0.392,0.405,0.391,0.377,0.315,0.34,0.291,0.289,0.318,0.244,0.289
NCI-H1651,0.614,0.579,0.579,0.577,0.523,0.579,0.583,0.555,0.5,0.505,0.793,0.518,0.661,0.457,0.484,0.501,0.515,0.515,0.446,0.618
NCI-H1666,0.985,0.843,0.774,0.854,0.833,0.793,0.879,0.881,0.803,0.874,0.615,0.541,0.651,0.617,0.669,0.605,0.62,0.621,0.63,0.642
NCI-H1734,0.414,0.407,0.392,0.465,0.39,0.4,0.388,0.41,0.404,0.467,0.247,0.248,0.264,0.267,0.35,0.348,0.314,0.373,0.295,–
NCI-H1755,0.425,0.42,0.441,0.407,0.384,0.396,0.53,0.464,0.482,0.451,0.544,0.563,0.598,0.584,0.46,0.471,0.427,0.446,0.439,0.448
NCI-H1793,0.75,0.777,0.663,0.889,0.494,1.02,0.779,0.772,0.711,0.744,0.334,0.264,0.32,0.317,0.325,0.305,0.302,0.296,0.261,0.262
NCI-H1915,0.495,0.45,0.45,0.497,0.455,0.496,0.509,0.523,0.505,0.477,0.455,0.442,0.534,0.305,0.51,0.519,0.499,0.484,0.522,0.343
NCI-H1944,0.62,0.615,0.597,0.582,0.43,0.615,0.566,0.682,0.564,0.58,0.255,0.25,0.269,0.24,0.323,0.343,0.322,0.276,0.303,0.275
NCI-H1975,0.27,0.283,0.296,0.277,0.313,0.296,0.275,0.268,0.285,0.306,0.741,0.635,0.878,0.203,0.539,0.542,0.593,0.585,0.61,0.458
NCI-H1993,0.586,0.616,0.637,0.606,0.517,0.629,0.55,0.707,0.515,0.598,0.657,0.521,0.608,0.577,0.661,0.628,0.602,0.581,0.392,0.625
NCI-H2009,1.05,1.02,1.02,0.994,0.997,1.02,1.14,0.99,0.986,1.05,0.747,0.65,0.763,0.629,0.221,0.3,0.197,0.25,0.25,0.683
NCI-H2023,0.255,0.298,0.201,0.233,0.183,0.182,0.197,–,0.202,0.252,0.386,0.251,0.275,0.136,0.359,0.369,–,0.314,0.319,0.288
NCI-H2085,0.779,0.665,0.89,0.959,0.63,1.02,0.786,0.776,0.765,0.767,0.821,0.744,0.813,0.566,0.447,0.479,0.496,0.498,0.489,0.826
NCI-H2087,0.681,0.699,0.648,0.605,0.678,0.661,0.64,0.619,0.641,0.623,0.229,0.234,0.199,0.211,0.244,0.196,0.183,0.281,0.212,0.201
NCI-H2126,0.635,0.659,0.761,0.687,0.529,0.658,0.632,0.715,0.669,0.651,0.837,0.823,0.934,0.681,0.338,0.348,0.328,0.356,0.35,0.709
